# Legend:
# Type in all cases: cell-based, human
# [1] = system: non-small cell lung cancer cell lines; assay: NCI 60 screen, sub-panel mean; details: NCI-60, non-small cell lung cancer sub-panel
# Procedure: (§1) Anticancer profiling over a panel of 60 cancer cell lines was carried out at the National Cancer Institute (NCI), Bethesda, Maryland, USA, https://dtp.cancer.gov/discovery_development/nci-60/methodology.htm (Last visit 22 September 2021), using the standard procedure (detailed procedure is located in the Supplementary Information page 50 s).
# (§2) NCI standard procedure for 60 cell lines assay
# (§3) The human tumor cell lines of the cancer screening panel are grown in RPMI 1640 mediu m containing 5% fetal bovine serum and 2 mM L-glutamine. For a typical screening experiment, cells are inoculated into 96 well microtiter plates in 100 μL at plating densities ranging from 5,000 to 40,000 cells/well depending on the doubling time of individual cell lines. After cell inoculation, the microtiter plates are incubated at 37° C, 5 % CO2, 95 % air and 100 % relative humidity for 24 h prior to addition of experimental drugs.
# (§4) After 24 h, two plates of each cell line are fixed in situ with TCA, to represent a measurement of the cell population for each cell line at the time of drug addition (Tz). Experimental drugs are solubilized in dimethyl sulfoxide at 400-fold the desired final maximum test concentration (10 µM) and stored frozen prior to use. At the time of drug addition, an aliquot of frozen concentrate is thawed and diluted to twice the desired final maximum test concentration with co mp lete medium containing 50 μg/ml gentamicin. Additional four, 10-fold or ½ log serial dilutions are made to provide a total of five drug concentrations plus control. Aliquots of 100 μl of these different drug dilutions are added to the appropriate microtiter wells already containing 100 μl of medium, resulting in the required final drug concentrations.
# (§5) Following drug addition, the plates are incubated for an additional 48 h at 37°C, 5 % CO2, 95 % air, and 100 % relative humidity. For adherent cells, the assay is terminated by the addition of cold TCA. Cells are fixed in situ by the gentle addition of 50 μl of cold 50 % (w/v) TCA (final concentration, 10 % TCA) and incubated for 60 minutes at 4°C. The supernatant is discarded, and the plates are washed five times with tap water and air dried. Sulforhodamine B (SRB) solution (100 μl) at 0.4 % (w/v) in 1 % acetic acid is added to each well, and plates are incubated for 10 minutes at room temperature. After staining, unbound dye is removed by washing five times with 1 % acetic acid and the plates are air dried. Bound stain is subsequently solubilized with 10 mM trizma base, and the absorbance is read on an automated plate reader at a wavelength of 515 nm. For suspension cells, the methodology is the same except that the assay is terminated by fixing settled cells at the bottom of the wells by g ently adding 50 μl of 80 % TCA (final concentration, 16 % TCA). Using the seven absorbance measurements [time zero, (Tz), control growth, (C), and test growth in the presence of drug at the five concentration levels (Ti)], the percentage growth is calculated at each of the drug concentrations levels. Percentage growth inhibition is calculated as:
# (§6) [(Ti-Tz)/(C-Tz)] x 100 for concentrations for which Ti>/=Tz
# (§7) [(Ti-Tz)/Tz] x 100 for concentrations for which Ti<Tz.
# (§8) Three dose response parameters are calculated for each experimental agent. Growth inhibition of […]
# (§9) resulting in a 50% reduction in the net protein increase (as measured by SRB staining) in control cells during the drug incubation. The drug concentration resulting in total growth inhibition […]
# (§10) (TGI) is calculated from Ti = Tz.
# breast cancer cell lines = assay: NCI 60 screen, sub-panel mean; details: NCI-60, breast cancer sub-panel
# Procedure: as §1, §2, §3, §4, §5, §6, §7, §8, §9, §10
# [2] = system: ovarian cancer cell lines; assay: NCI 60 screen, sub-panel mean; details: NCI-60, ovarian cancer sub-panel
# Procedure: as §1, §2, §3, §4, §5, §6, §7, §8, §9, §10
# [3] = system: prostate cancer cell lines; assay: NCI 60 screen, sub-panel mean; details: NCI-60, prostate cancer sub-panel
# Procedure: as §1, §2, §3, §4, §5, §6, §7, §8, §9, §10
# renal cancer cell lines = assay: NCI 60 screen, sub-panel mean; details: NCI-60, renal cancer sub-panel
# Procedure: as §1, §2, §3, §4, §5, §6, §7, §8, §9, §10
# SR = assay: NCI 60 cell line screen; details: for activity at 10 µM: Homo sapiens, Leukemia, read-out: Percent growth; for percent inhibition: NCI-60 heat map analysis
# Outline: (§11)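 Growth inhibition is expressed as percent growth versus time-zero and vehicle controls, from SRB absorbance at 515 nm. Compounds span five concentrations (max 10 µM) for 48 h in RPMI 1640 with 5% serum. TGI corresponds to Ti = Tz.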
# RPMI-8226 = assay: NCI 60 cell line screen; details: for activity at 10 µM: Homo sapiens, RPMI-8226, Leukemia, read-out: Percent growth; for percent inhibition: RPMI-8226, NCI-60 heat map analysis
# Outline: as §11
# RXF 393 = assay: NCI 60 cell line screen; details: for activity at 10 µM: Homo sapiens, RXF 393, Renal Cancer, read-out: Percent growth
# Outline: as §11
# NCI-H522 = assay: NCI 60 cell line screen; details: for activity at 10 µM: Homo sapiens, NCI-H522, Non-Small Cell Lung Cancer, read-out: Percent growth
# Outline: as §11
# SF-295 = assay: NCI 60 cell line screen; details: for activity at 10 µM: Homo sapiens, SF-295, CNS-Cancer, read-out: Percent growth
# Outline: as §11
# EKVX = assay: NCI 60 cell line screen; details: for activity at 10 µM: Homo sapiens, Non-Small Cell Lung Cancer, read-out: Percent growth
# Outline: as §11
# PC-3 = assay: NCI 60 cell line screen; details: for activity at 10 µM: Homo sapiens, PC-3, Prostate Cancer, read-out: Percent growth
# Outline: as §11
# HOP-92 = assay: NCI 60 cell line screen; details: for percent inhibition: HOP-92, NCI-60 heat map analysis; for activity at 10 µM: Homo sapiens, HOP-92, Non-Small Cell Lung Cancer, read-out: Percent growth
# Outline: as §11
# T-47D = assay: NCI 60 cell line screen; details: for activity at 10 µM: Homo sapiens, T47D, Breast Cancer, read-out: Percent growth; for percent inhibition: NCI-60 heat map analysis
# Outline: as §11
# NCI-H460 = assay: NCI 60 cell line screen; details: for activity at 10 µM: Homo sapiens, NCI-H460, Non-Small Cell Lung Cancer, read-out: Percent growth
# Outline: as §11
# SNB-75 = assay: NCI 60 cell line screen; details: for activity at 10 µM: Homo sapiens, SNB-75, CNS-Cancer, read-out: Percent growth
# Outline: as §11
# HCT-15 = assay: NCI 60 cell line screen; details: for activity at 10 µM: Homo sapiens, HCT-15, Colon Cancer, read-out: Percent growth; for percent inhibition: HCT-15, NCI-60 heat map analysis
# Outline: as §11
# UO-31 = assay: NCI 60 cell line screen; details: for activity at 10 µM: Homo sapiens, UO-31, Renal Cancer, read-out: Percent growth; for percent inhibition: UO-31, NCI-60 heat map analysis
# Outline: as §11
# colon cancer cell lines = assay: NCI 60 screen, sub-panel mean; details: NCI-60, colon cancer sub-panel
# Procedure: as §1, §2, §3, §4, §5, §6, §7, §8, §9, §10
# leukemia cell lines = assay: NCI 60 screen, sub-panel mean; details: NCI-60, leukemia sub-panel
# Procedure: as §1, §2, §3, §4, §5, §6, §7, §8, §9, §10
# NCI 60 cancer cell lines = assay: NCI 60 cell line screen, mean over panel
# Procedure: as §1, §2
# The human tumor cell lines of the cancer screening panel are grown in RPMI 1640 mediu m containing 5% fetal bovine serum and 2 mM L-glutamine. […]
# Following drug addition, the plates are incubated for an additional 48 h at 37°C, 5 % CO2, 95 % air, and 100 % relative humidity. […] Bound stain is subsequently solubilized with 10 mM trizma base, and the absorbance is read on an automated plate reader at a wavelength of 515 nm. […] Using the seven absorbance measurements [time zero, (Tz), control growth, (C), and test growth in the presence of drug at the five concentration levels (Ti)], the percentage growth is calculated at each of the drug concentrations levels. Percentage growth inhibition is calculated as: […]
# Three dose response parameters are calculated for each experimental agent. […]
# resulting in a 50% reduction in the net protein increase (as measured by SRB staining) in control cells during the drug incubation. […]
# as §10
compound,measurement,setting,value
"Cc1ccc(S(=O)(=O)NCCNc2nccc(-n3cnc4ccccc43)n2)cc1 [12g, N-(2-((4-(1H-benzo [d]imidazol-1-yl)pyrimidin-2-yl)amino)ethyl)-4-methyl benzenesulfonamide]",mean percent inhibition,[1],30%
same,mean percent inhibition,breast cancer cell lines,around 40%
same,mean percent inhibition,[2],around 25%
same,mean percent inhibition,[3],around 20%
same,mean percent inhibition,renal cancer cell lines,around 30%
same,activity at 10 µM,SR,53.6%
same,percent inhibition,SR,around 45%
same,activity at 10 µM,RPMI-8226,52.5%
same,percent inhibition,RPMI-8226,around 45%
same,activity at 10 µM,RXF 393,55.4%
same,activity at 10 µM,NCI-H522,64.6%
same,activity at 10 µM,SF-295,75.5%
same,activity at 10 µM,EKVX,56.1%
same,activity at 10 µM,PC-3,76.1%
same,percent inhibition,HOP-92,around 40%
same,activity at 10 µM,HOP-92,57.9%
same,activity at 10 µM,T-47D,27.6%
same,percent inhibition,T-47D,73%
same,activity at 10 µM,NCI-H460,79%
same,activity at 10 µM,SNB-75,69%
same,activity at 10 µM,HCT-15,80.2%
same,activity at 10 µM,UO-31,52%
same,percent inhibition,UO-31,48%
"O=S(=O)(NCCCNc1nccc(-n2cnc3ccccc32)n1)c1ccc(C(F)(F)F)cc1 [12l, N-(3-((4-(1H-benzo [d]imidazol-1-yl)pyrimidin-2-yl)amino)propyl)-4-(trifluoromethyl) benzenesulfonamide]",mean percent inhibition,[1],30%
same,mean percent inhibition,breast cancer cell lines,around 40%
same,mean percent inhibition,colon cancer cell lines,30%
same,mean percent inhibition,[2],around 25%
same,mean percent inhibition,leukemia cell lines,46%
same,mean percent inhibition,[3],around 20%
same,mean percent inhibition,renal cancer cell lines,around 30%
same,activity at 10 µM,SR,58%
same,activity at 10 µM,RPMI-8226,55.6%
same,activity at 10 µM,RXF 393,43.8%
same,percent inhibition,"RXF 393; RXF 393, NCI-60 heat map analysis",57%
same,activity at 10 µM,NCI-H522,66.9%
same,activity at 10 µM,SF-295,69.8%
same,activity at 10 µM,EKVX,58.1%
same,activity at 10 µM,PC-3,59%
same,percent inhibition,HOP-92,around 40%
same,activity at 10 µM,HOP-92,56%
same,activity at 10 µM,T-47D,16.8%
same,percent inhibition,T-47D,84%
same,activity at 10 µM,NCI-H460,79.3%
same,activity at 10 µM,SNB-75,65.2%
same,percent inhibition,HCT-15,more than 40%
same,activity at 10 µM,HCT-15,53.8%
same,activity at 10 µM,UO-31,54.4%
same,percent inhibition,UO-31,46%
"O=S(=O)(NCCNc1nccc(-n2cnc3ccccc32)n1)c1ccc(C(F)(F)F)cc1 [12e, N-(2-((4-(1H-benzo [d]imidazol-1-yl)pyrimidin-2-yl)amino)ethyl)-4-(trifluoromethyl)benzenesulfonamide]",mean percent inhibition,[1],50%
same,mean percent inhibition,breast cancer cell lines,more than 60%
same,mean percent inhibition,colon cancer cell lines,40%
same,mean percent inhibition,[2],40%
same,mean percent inhibition,leukemia cell lines,60%
same,mean percent inhibition,[3],40%
same,mean percent inhibition,renal cancer cell lines,45%
same,mean percent inhibition over 60-cell line panel,NCI 60 cancer cell lines,around 50%
same,activity at 10 µM,SR,35.5%
same,percent inhibition,SR,65%
same,activity at 10 µM,RPMI-8226,44.9%
same,percent inhibition,RPMI-8226,55%
same,activity at 10 µM,RXF 393,38.2%
same,activity at 10 µM,NCI-H522,38.2%
same,activity at 10 µM,SF-295,44.7%
same,percent inhibition,"SF-295; SF-295, NCI-60 heat map analysis",more than 50%
same,activity at 10 µM,EKVX,34.7%
same,activity at 10 µM,PC-3,45.5%
same,percent inhibition,"PC-3; PC-3, NCI-60 heat map analysis",55%
same,percent inhibition,HOP-92,around 40%
same,activity at 10 µM,HOP-92,54.5%
same,activity at 10 µM,T-47D,22.3%
same,percent inhibition,T-47D,77%
same,activity at 10 µM,NCI-H460,57.8%
same,percent inhibition,"NCI-H460; NCI-H460, NCI-60 heat map analysis",around 40%
same,activity at 10 µM,SNB-75,46.8%
same,percent inhibition,"SNB-75; SNB-75, NCI-60 heat map analysis",more than 50%
same,percent inhibition,HCT-15,around 40%
same,activity at 10 µM,HCT-15,60.7%
same,activity at 10 µM,UO-31,39.9%
"O=S(=O)(NCCCNc1nccc(-n2cnc3ccccc32)n1)c1ccc(F)cc1 [12i, N-(3-((4-(1H-benzo [d]imidazol-1-yl)pyrimidin-2-yl)amino)propyl)-4-fluorobenzenesulfonamide]",mean percent inhibition,breast cancer cell lines,around 40%
same,mean percent inhibition,[2],around 25%
same,mean percent inhibition,leukemia cell lines,50%
same,mean percent inhibition,[3],around 20%
same,activity at 10 µM,SR,36.8%
same,activity at 10 µM,RPMI-8226,57.8%
same,activity at 10 µM,RXF 393,163%
same,activity at 10 µM,NCI-H522,68.5%
same,percent inhibition,"NCI-H522; NCI-H522, NCI-60 heat map analysis",around 30%
same,activity at 10 µM,SF-295,70.6%
same,activity at 10 µM,EKVX,61.2%
same,percent inhibition,EKVX; NCI-60 heat map analysis,around 30%
same,activity at 10 µM,PC-3,69.3%
same,activity at 10 µM,HOP-92,87.9%
same,activity at 10 µM,T-47D,25.5%
same,percent inhibition,T-47D,75%
same,activity at 10 µM,NCI-H460,79.7%
same,activity at 10 µM,SNB-75,82.5%
same,activity at 10 µM,HCT-15,82.8%
same,activity at 10 µM,UO-31,59.3%

# From publication PMC8508980, “Design, Synthesis and Anticancer Profile of New 4-(1H-benzo[d]imidazol-1-yl)pyrimidin-2-amine-Linked Sulfonamide Derivatives with V600EBRAF Inhibitory Effect” (International Journal of Molecular Sciences, 2021)
